Measurements reported in patent US20110269805A1, “METHOD OF TREATING SENSORIMOTOR DISORDERS WITH 4-(1-(2,3-DIMETHYLPHENYL)ETHYL)-1H-IMIDAZOLE-2(3H)-THIONE” (priority 2007, published 2011).
“Also recorded” adds a separate entry of the source.

Key:
Assay type in all cases: in vivo
C57B/6 male mice [1] = assay: Amphetamine-induced stereotypy (open field locomotion); details: 30 μg/kg PO, time post-amphetamine −15 min, amphetamine 8 mg/kg
Male Sprague-Dawley rats = assay: Pre-pulse inhibition of the startle response (PPI) disrupted by psychostimulants
Procedure: Male Sprague-Dawley rats were treated with Drug 1 (IP) followed 20 minutes later by Drug 2 (IP or SC as indicated in the methods). Ten minutes following administration of Drug 2 (except in the case of apomorphine where animals were immediately tested post-apomorphine), rats were placed in the startle chamber and allowed 5 minutes to acclimate with 65-dB background white noise. The acclimation period was followed by a ˜15 minute test session during which time rats were presented with 40 ms 120 dB startle pulses alone or preceded 100 ms by a pre-pulse 3, 6, or 12 dB above background. These four types of active stimuli were presented in pseudorandom order along with no-stimulation trials to assess baseline activity throughout testing. An average of 20 s separated each trial type. The maximum startle magnitude was measured for every trial type. PPI for each animal was calculated as the percentage startle magnitude to the pre-pulse+pulse or no-stimulation trials relative to the pulse-alone startle magnitude. Amphetamine induced stereotypy. […] Locomotion was separated into “fine movements” (indicative of stereotypy) and “ambulations” (indicative of hyperactivity). Prepulse inhibition. […] Each rat was individually placed in the startle chamber 10 minutes post-phencyclidine or post-amphetamine or post-vehicle. Testing was carried out using the SR-Lab Startle Response system by San Diego Instruments. Each rat was allowed to acclimate for a 5 minute period with a 65-dB background noise continuously present throughout the session. […] A sensor in the chamber recorded the startle responses following all stimuli presented.

C57B/6 male mice [2] = assay: Amphetamine-induced stereotypy (open field locomotion); details: for AMBULATIONS / FINE MOVEMENTS: 30 μg/kg PO, amphetamine 8 mg/kg; for FINE MOVEMENTS: scored 60 min post-amphetamine
Procedure: C57B/6 male mice were placed in an open field apparatus and allowed to habituate for 15-30 minutes. The compound of the invention (at 30 μg/kg) was administered PO at 0, +15, or +30 minutes relative to amphetamine (8 mg/kg) administration, and locomotor behavior was scored for an additional 60 minutes post-amphetamine. Amphetamine was administered IP. Locomotion was separated into “fine movements” (indicative of stereotypy) and “ambulations” (indicative of hyperactivity). Amphetamine induced stereotypy. […] Locomotion was separated into “fine movements” (indicative of stereotypy) and “ambulations” (indicative of hyperactivity). Prepulse inhibition. Sprague Dawley male rats (˜200 g-300 g) were used (n=8/group). […] Each rat was individually placed in the startle chamber 10 minutes post-phencyclidine or post-amphetamine or post-vehicle. Testing was carried out using the SR-Lab Startle Response system by San Diego Instruments. Each rat was allowed to acclimate for a 5 minute period with a 65-dB background noise continuously present throughout the session. […] A sensor in the chamber recorded the startle responses following all stimuli presented.

## Cc1cccc(C(C)c2c[nH]c(=S)[nH]2)c1C (stereo not shown) [AGN-203818, 4-(1-(2,3-dimethylphenyl)ethyl)-1H-imidazole-2(3H)-thione]
C57B/6 male mice [1]; ambulations indicative of hyperactivity
  AMBULATIONS: 4756.3 ± 1208.8
C57B/6 male mice [1]; scored 60 min post-amphetamine, fine movements indicative of stereotypy
  FINE MOVEMENTS: 904.5 ± 107.0^⋄
Male Sprague-Dawley rats; Compound 0.01 mg/kg as Drug 1, Drug 2 PCP (2 mg/kg, s.c.), pre-pulse 3 dB
  % PPI PP3: 20.3 ± 10.6%
Male Sprague-Dawley rats; Compound 0.01 mg/kg as Drug 1, Drug 2 PCP (2 mg/kg, s.c.), pre-pulse 6 dB
  % PPI PP6: 21.6 ± 10.7%
Male Sprague-Dawley rats; Compound 0.01 mg/kg as Drug 1, Drug 2 PCP (2 mg/kg, s.c.), pre-pulse 12 dB
  % PPI PP12: 51.8 ± 5.6%
Male Sprague-Dawley rats; Compound 0.03 mg/kg as Drug 1, Drug 2 PCP (2 mg/kg, s.c.), pre-pulse 3 dB
  % PPI PP3: 30.9 ± 7.4%
Male Sprague-Dawley rats; Compound 0.03 mg/kg as Drug 1, Drug 2 PCP (2 mg/kg, s.c.), pre-pulse 6 dB
  % PPI PP6: 46.2 ± 4.2%^⋄
Male Sprague-Dawley rats; Compound 0.03 mg/kg as Drug 1, Drug 2 PCP (2 mg/kg, s.c.), pre-pulse 12 dB
  % PPI PP12: 53.6 ± 4.2%
Male Sprague-Dawley rats; Compound 0.1 mg/kg as Drug 1, Drug 2 PCP (2 mg/kg, s.c.), pre-pulse 3 dB
  % PPI PP3: 35.8 ± 7.0%
Male Sprague-Dawley rats; Compound 0.1 mg/kg as Drug 1, Drug 2 PCP (2 mg/kg, s.c.), pre-pulse 6 dB
  % PPI PP6: 39.6 ± 10.7%
Male Sprague-Dawley rats; Compound 0.1 mg/kg as Drug 1, Drug 2 PCP (2 mg/kg, s.c.), pre-pulse 12 dB
  % PPI PP12: 56.2 ± 5.6%^⋄
Male Sprague-Dawley rats; Compound 1 mg/kg as Drug 1, Drug 2 Amphetamine (4 mg/kg, s.c.), pre-pulse 3 dB
  % PPI PP3: 49.6 ± 5.8%^⋄
Male Sprague-Dawley rats; Compound 1 mg/kg as Drug 1, Drug 2 Amphetamine (4 mg/kg, s.c.), pre-pulse 6 dB
  % PPI PP6: 52.9 ± 4.3%^⋄
Male Sprague-Dawley rats; Compound 1 mg/kg as Drug 1, Drug 2 Amphetamine (4 mg/kg, s.c.), pre-pulse 12 dB
  % PPI PP12: 65.7 ± 4.7%^⋄
Male Sprague-Dawley rats; Compound 1 mg/kg as Drug 1, Drug 2 PCP (2 mg/kg, s.c.), pre-pulse 3 dB
  % PPI PP3: 48.8 ± 8.2%^⋄
Male Sprague-Dawley rats; Compound 1 mg/kg as Drug 1, Drug 2 PCP (2 mg/kg, s.c.), pre-pulse 6 dB
  % PPI PP6: 45.0 ± 12.7%
Male Sprague-Dawley rats; Compound as Drug 1 (dose not given), Drug 2 Vehicle, pre-pulse 3 dB
  % PPI PP3: 60.4 ± 4.8%^⋄
Male Sprague-Dawley rats; Compound as Drug 1 (dose not given), Drug 2 Vehicle, pre-pulse 6 dB
  % PPI PP6: 59.8 ± 2.2%^⋄
Male Sprague-Dawley rats; Compound as Drug 1 (dose not given), Drug 2 Vehicle, pre-pulse 12 dB
  % PPI PP12: 75.5 ± 2.9%^⋄*
Male Sprague-Dawley rats; deficits induced by amphetamine or phencyclidine
  effect on PPI deficits induced by amphetamine or phencyclidine (in words): significantly rescue deficits in sensorimotor integration
C57B/6 male mice [2]; time post-amphetamine 0 min
  AMBULATIONS: 7337 ± 890.0
  FINE MOVEMENTS: 762.2 ± 89.4^⋄
C57B/6 male mice [2]; time post-amphetamine 15 min
  AMBULATIONS: 5747.3 ± 874.4
  FINE MOVEMENTS: 1066.5 ± 37.8^⋄
C57B/6 male mice [2]; time post-amphetamine 30 min
  AMBULATIONS: 7201.2 ± 1669.4
  FINE MOVEMENTS: 1297.8 ± 85.3^⋄
C57B/6 male mice [2]; administered PO
  oral activity (in words): orally active
C57B/6 male mice [2]; high-dose psychostimulant administration, listed as compound of the invention
  effect on amphetamine-induced stereotypy (in words): effectively inhibit stereotypy; also recorded: selectively decreased amphetamine-induced stereotypy

## Clc1cccc(Cl)c1N=C1NCCN1 [Clonidine, reference compound]
Male Sprague-Dawley rats; Clonidine 30 ug/kg as Drug 1, Drug 2 Amphetamine (4 mg/kg, s.c.), pre-pulse 3 dB
  % PPI PP3: 31.0 ± 6.9%
Male Sprague-Dawley rats; Clonidine 30 ug/kg as Drug 1, Drug 2 Amphetamine (4 mg/kg, s.c.), pre-pulse 6 dB
  % PPI PP6: 40.7 ± 6.0%
Male Sprague-Dawley rats; Clonidine 30 ug/kg as Drug 1, Drug 2 Amphetamine (4 mg/kg, s.c.), pre-pulse 12 dB
  % PPI PP12: 53.5 ± 5.2%
Male Sprague-Dawley rats; Clonidine 30 ug/kg as Drug 1, Drug 2 PCP (2 mg/kg, s.c.), pre-pulse 3 dB
  % PPI PP3: 34.5 ± 8.2%
Male Sprague-Dawley rats; Clonidine 30 ug/kg as Drug 1, Drug 2 PCP (2 mg/kg, s.c.), pre-pulse 6 dB
  % PPI PP6: 55.1 ± 9.8%
Male Sprague-Dawley rats; Clonidine 30 ug/kg as Drug 1, Drug 2 PCP (2 mg/kg, s.c.), pre-pulse 12 dB
  % PPI PP12: 63.7 ± 7.4%
Male Sprague-Dawley rats; Clonidine 30 ug/kg as Drug 1, Drug 2 Vehicle, pre-pulse 3 dB above background
  % PPI PP3: 35.2 ± 15.7%
Male Sprague-Dawley rats; Clonidine 30 ug/kg as Drug 1, Drug 2 Vehicle, pre-pulse 6 dB above background
  % PPI PP6: 60.8 ± 3.0%^⋄
Male Sprague-Dawley rats; Clonidine 30 ug/kg as Drug 1, Drug 2 Vehicle, pre-pulse 12 dB above background
  % PPI PP12: 54.7 ± 8.0%
